Data from US8912184B1, “Therapeutic and diagnostic methods” (Alzheimer's Institute of America, Inc., priority 2010, dated 2014).

Experiments:
cell lines = experiment: NA rescue phenotype of cell lines treated with Nampt inhibitor (Nicotinic Acid Rescue Cytotoxicity Assays); type: cell-based
Experimental: Cell lines were treated with a fixed dose of Exemplary Compound A and screened for NA rescue and Naprt1 expression by immunoblotting and qRT-PCR (Table 3). […] The 176 cell lines included 5 normal (non-cancerous) cell lines and 3 primary cell lines (italicized in the table), all of which rescued. Naprt1 was quantified by western blotting and qRT-PCR in 164 and 123 of the 176 cell lines, respectively. […] A statistically significant (p value <0.0001) correlation existed between a NA rescue phenotype and Naprt1 protein or mRNA expression levels.
Additionally, Nicotinic Acid (NA) rescue of cytotoxicity of Nampt inhibitors was assessed by two distinct methods. In the first method, Nampt1 inhibitor cytotoxicity was evaluated in the presence and absence of exogenous nicotinic acid (NA) at a fixed concentration. […] Twenty four hours after cells were plated, the media was removed and replaced with media containing 10 μM nicotinic acid. Compounds were then immediately added. Cell viability was then assessed at 72 h.
Cell viability was then assessed at 72 h.

HCT116 cells [1] = experiment: 72 Hour HCT116 Cytotoxicity Assay (CellTiter-Glo); type: cell-based; details: Homo sapiens, HCT-116, 72 h, HCT116 cells, 72 h, read-out: IC50 cytotoxicity
Experimental: HCT116 cells were seeded in 96 well plates (Greiner Bio-One, Monroe, N.C.) and allowed to settle overnight. Test compound dissolved in dimethyl sulfoxide (DMSO) was added and drug incubation proceeded for 72 hours. […] After 72 hour, 50 μL of CellTiter-Glo Luminescent Cell Viability Assay reagent (Promega Corporation, Madison, Wis.) was added to cells in 200 μL of cellular media. After a proscribed incubation period, luminescence was measured using a TopCount NXT plate reader (PerkinElmer, Waltham, Mass.).

[2] = type: in vivo; details: mice, single oral dose 300 mg/kg, by 5 days
HCT116 cells [3] = experiment: NAD measured in cellular lysates (NAD depletion) of HCT116 cells; type: cell-based, human; details: for IC50: Homo sapiens
Experimental: NAD in cells was measured by modification of existing protocols (Lee, H. I., et al. Exp. Mol. Med. 40, 246-253 (2008)). MCF-10A cells stably transduced with the PIK3CA(H1047R) oncogene were seeded in 96 well plates at very high density (100% confluence) and allowed to settle overnight. Test compound dissolved in DMSO was added and drug incubation proceeded for 20-24 hours. Cells were washed with PBS and harvested by incubation in 25 μL 0.5 M perchloric acid (HClO4) followed by vigorous shaking at 4° C. for 15 minutes. Acidic cell lysates were neutralized by adding 8 μL of 2 M KOH/0.2 M K2HPO4. The entire lysate volume was transferred to a centrifuge plate and spun at 3000 rpm in a table top centrifuge (4° C.) for 5 minutes to clear the precipitate. Lysate was assayed for both NAD and ATP. For NAD measurement, 10 μL lysate from the centrifuged plate was added to 90 μL of reaction solution in Costar 96 half-well plates (Corning, Corning, N.Y.). […]. Reactions were allowed to proceed for 1 hour at room temperature, after which time fluorescence was read on a Gemini plate reader as described above.
Using such methods NAD Depeletion was followed in lysates of Naprt-proficient HCT116 cells, exposed to Exemplary Compound A, as shown in FIG. 4 (a). […].
Kinetics of NAD and ATP depletion in Naprt1-proficient HCT116 cells induced by Exemplary Compound A was studied using the assays described above. HCT116 cells were treated with 8.5 nM Exemplary Compound A and cellular NAD and ATP were measured at various times.
Potency of Exemplary Compound A as a function of time of exposure was also studied using the assays described above. Cells were treated with a range of Exemplary Compound A concentration for varying times of exposure, and IC50 values for NAD and ATP depletion were determined. […].

HCT116 xenograft tumors = experiment: HCT116 human colon carcinoma murine xenograft, tumor growth/regression; type: in vivo, nu/nu mice
Experimental: Exemplary Compound A was tested for its ability to deplete NAD levels and promote tumor regression in an HCT116 (i.e., a Naprt-proficient cancer) murine xenograft model. Three million HCT116 human colon carcinoma cells were injected subcutaneously into nu/nu mice to form tumors. Dosing was started ten days later when median tumor volume was >100 mm^3.
Exemplary Compound A was administered orally to HCT116 tumor-bearing xenograft mice once (arrow) at the maximum tolerated dose of 75 mg/kg with or without simultaneous delivery of NA by Alzet pump (470 mg/kg/day for three days) (FIG. 8(b)).
The effect of weekly administration of Exemplary Compound A on tumor growth was examined in murine HCT116 xenograft models (FIG. 8(c)). HCT116 tumor-bearing xenograft mice were orally dosed with 75 mg/kg Exemplary Compound A weekly for three cycles (arrows), resulting in a maximal tumor response of 10% regression on day 18.
The effect of daily administration of Exemplary Compound A on tumor growth was examined in murine HCT116 xenograft models (FIG. 8(d)). HCT116 tumor-bearing xenograft mice were orally dosed with 10 mg/kg Exemplary Compound A daily for 21 days (black bar), resulting in a maximal tumor response of 32% regression on day 11.

[4] = of 176 cell lines tested, fixed dose

O=C(NCc1cccnc1)Nc1ccc(COc2ccccc2-c2ccccc2)cc1 [Exemplary Compound A, 1-{4-[(biphenyl-2-yloxy)methyl]phenyl}-3-(pyridin-3-ylmethyl)urea]
Rescuable by NA? (cell lines; A172, glioma): no
Rescuable by NA? (cell lines; COLO-205, colorectal): yes
Rescued by NA? (partial indicates <70% rescue) (cell lines; DEL cells (lymphoma)): Y (partial)
Rescuable by NA? (cell lines; DMS-114, SCLC): yes
Rescued by NA? (partial indicates <70% rescue) (cell lines; H4 cells (brain; neuroglioma)): Y (partial)
Rescuable by NA? (cell lines; HCC827, NSCLC): no
Rescuable by NA? (cell lines; HCT-116, colorectal): yes
Rescuable by NA? (cell lines; HT29, colorectal): yes
Rescuable by NA? (cell lines; HT-1080, fibrosarcoma): no
Rescued by NA? (partial indicates <70% rescue) (cell lines; Hepa1-6 cells (mouse; hepatoma)): Y (partial)
Rescued by NA? (partial indicates <70% rescue) (cell lines; MOLP-8 cells (myeloma)): Y (partial)
Rescued by NA? (partial indicates <70% rescue) (cell lines; MONO-MAC-6 cells (lymphocytic leukemia)): Y (partial)
Rescuable by NA? (cell lines; MiaPaCa2, pancreatic): no
Rescuable by NA? (cell lines; NCI-H82, SCLC): yes
Rescuable by NA? (cell lines; NCI-H460, NSCLC): no
Rescuable by NA? (cell lines; NCI-H522, NSCLC): no
Rescued by NA? (partial indicates <70% rescue) (cell lines; NCI-H596 cells (lung (NSCLC))): Y (partial)
Rescuable by NA? (cell lines; NCI-H929, multiple myeloma): no
Rescuable by NA? (cell lines; NCI-H1650, NSCLC): no
Rescuable by NA? (cell lines; NCI-N87, gastric): yes
Rescued by NA? (partial indicates <70% rescue) (cell lines; NOMO-1 cells (myelogenous leukemia)): Y (partial)
Rescuable by NA? (cell lines; OCI-Ly19, DLBCL (NHL)): yes
Rescuable by NA? (cell lines; OPM-2, multiple myeloma): no
Rescuable by NA? (cell lines; OVCAR-8, ovarian): yes
Rescued by NA? (partial indicates <70% rescue) (cell lines; PFSK-1 cells (brain; malignant neuroectodermal tumor)): Y (partial)
Rescued by NA? (partial indicates <70% rescue) (cell lines; RPMI-8226 cells (myeloma)): Y (partial)
Rescuable by NA? (cell lines; SF-295, glioma): no
Rescued by NA? (partial indicates <70% rescue) (cell lines; SKM-1 cells (myelogenous leukemia)): Y (partial)
Rescued by NA? (partial indicates <70% rescue) (cell lines; SR cells (lymphoma)): Y (partial)
Rescued by NA? (partial indicates <70% rescue) (cell lines; SU-DHL-4 cells (lymphoma)): Y (partial)
Rescuable by NA? (cell lines; SU-DHL-5, DLBCL (NHL)): no
Rescued by NA? (partial indicates <70% rescue) (cell lines; SU-DHL-8 cells (lymphoma)): Y (partial)
Rescued by NA? (partial indicates <70% rescue) (cell lines; SUP-M2 cells (lymphoma)): Y (partial)
Rescuable by NA? (cell lines; U-87MG, glioma): no
Fraction not rescued by NA (cell lines; bladder, 1 cell line tested): 0%
Fraction not rescued by NA (cell lines; brain, 30 cell lines tested): 53%
Fraction not rescued by NA (cell lines; breast, 7 cell lines tested): 0%
Fraction not rescued by NA (cell lines; colon, 6 cell lines tested): 0%
Fraction not rescued by NA (cell lines; fibrosarcoma, 5 cell lines tested): 20%
Fraction not rescued by NA (cell lines; gastric, 1 cell line tested): 0%
Fraction not rescued by NA (cell lines; kidney, 5 cell lines tested): 20%
Fraction not rescued by NA (cell lines; liver, 4 cell lines tested): 25%
Fraction not rescued by NA (cell lines; lung, NSCLC, 26 cell lines tested): 27%
Fraction not rescued by NA (cell lines; lung, small cell, 7 cell lines tested): 14%
Fraction not rescued by NA (cell lines; lymphocytic leukemia, 6 cell lines tested): 17%
Fraction not rescued by NA (cell lines; lymphoma, 16 cell lines tested): 38%
Fraction not rescued by NA (cell lines; melanoma, 3 cell lines tested): 0%
Fraction not rescued by NA (cell lines; myelogenous leukemia, 10 cell lines tested): 10%
Fraction not rescued by NA (cell lines; myeloma, 9 cell lines tested): 44%
Rescued by NA? (partial indicates <70% rescue) (cell lines; no.11 cells (brain; glioma, anaplastic)): Y (partial)
number of cell lines completely rescued by NA (cell lines; [4]): 113
number of cell lines partially rescued by NA (cell lines; [4]): 16
number of cell lines that did not rescue with NA (cell lines; [4]): 47
Fraction not rescued by NA (cell lines; osteosarcoma, 6 cell lines tested): 50%
Fraction not rescued by NA (cell lines; ovary, 3 cell lines tested): 0%
Fraction not rescued by NA (cell lines; pancreas, 7 cell lines tested): 14%
cancer cell lines that failed to be rescued or were only partially rescued by NA (cell lines; panel of 147 cancer cell lines): 38%
Fraction not rescued by NA (cell lines; prostate, 2 cell lines tested): 0%
IC50 (HCT116 cells [1]; absence of 10 μM NA): 0.26 nM
IC50 (HCT116 cells [1]; presence of 10 μM NA): > 10000 nM
lethality [2]: completely lethal
NAD depletion reached before loss of ATP initiated (HCT116 cells [3]; HCT116 cells, 8.5 nM): > 90%
IC50 (HCT116 cells [3]; HCT-116, 0.5 h, exposure 30 min, read-out: potency (IC50) for NAD depletion): 23 nM
IC50 (HCT116 cells [3]; HCT-116, 24 h, HCT116 cells, 24 h, absence of 10 μM NA, read-out: IC50 NAD depletion): 0.26 nM
IC50 (HCT116 cells [3]; HCT-116, 24 h, HCT116 cells, 24 h, presence of 10 μM NA, read-out: IC50 NAD depletion): > 1000 nM
IC50 (HCT116 cells [3]; HCT-116, 48 h, after 48 h exposure, read-out: potency (IC50) for NAD depletion): ~0.6 nM
maximal tumor response, regression (HCT116 xenograft tumors; oral 10 mg/kg daily for 21 days, day 11): 32%
maximal tumor response, regression (HCT116 xenograft tumors; oral 75 mg/kg weekly for three cycles, day 18): 10%
tumor regression induced by single dose, in the presence of NA (HCT116 xenograft tumors; oral once 75 mg/kg, NA by Alzet pump 470 mg/kg/day for three days): completely prevented
